Patent US11271238B2, “Applications of low-cost, thermal and electrochemically stable organic compounds as high performance redox active materials in redox flow batteries” (Utah State University, priority 2018, dated 2022)
Like-named read-outs stand apart in the source and are kept apart here. Each block holds one compound with its values, some of them ahead of it.

Legend:
Aqueous solubility = type: physicochemical
[1] = cited from earlier work
[2] = Oxygen sensitivity of the reduced state (bubbling with air for 10 minutes); type: physicochemical
[3] = Cyclic voltammetry in 0.5 M NaCl; type: physicochemical
Protocol: Cyclic voltammetry was further used to characterize [(NPr)2TTz]Cl4.r All cyclic voltammetry experiments were conducted in an N2 purged 0.5 M NaCl aqueous solution with a Gamry 1000E potentiostat. A 3 mm PEEK encased glassy carbon disk was used as the working electrode. The working electrode was polished with 0.05 micron Al2O3 powder and rinsed with deionized H2O. A glassy carbon rod was used as the counter electrode. A silver wire coated with AgCl and suspended in 3.0 M KCl electrolyte was used as the reference electrode. The two redox peaks of [(NPr)2TTz]Cl4 were distinguished by peak fitting of its CV curve in the Origin program after removing background current.

[4] = Electron transfer rate constant by Nicholson's method; type: physicochemical
Protocol: The electron transfer rate constants (k^0) for the electron transfers of [([…]]^3+ were estimated. Following the well-known Nicholson's method (R. S. Nicholson, Anal. Chem. 1965, 37, 1351-1355.), a solution containing 4.0 mM [(NPr)2TTz]Cl4 with 0.5 M NaCl was used to record CV curves (FIG. 6A and FIG. 6B). The peak-to-peak separation (reduction and oxidation peak potential gap), ΔEp, was obtained and used to calculate the kinetic parameter, Ψ, using Equation 2. And then, k^0 was calculated from equation 3 based on the relationship between Ψ and ν^-1/2. Ψ=(-0.6288+0.0021ΔEp)/(1-0.017ΔEp) (Equation 2) Ψ=k^0[πDnF/RT]^-1/2ν^-1/2 (Equation 3) where F, D, and n are defined in Equation 1, R=8.314, and ν represents the scan rate.

[5] = Linear sweep voltammetry with rotating disk electrode (Levich plot); type: physicochemical; details: 1.0 mM in 0.5 M NaCl, Levich equation
Protocol: Linear sweep voltammetry (LSV) experiments were conducted using a Gamry 1000E potentiostat with a three-electrode system. A 5 mm diameter rotating glassy carbon disk encased in Teflon served as the working electrode. A glassy carbon rod was used as the counter electrode. An Ag/AgCl wire served as the reference electrode. The working electrode was cleaned using the same method as in the CV experiments. During the experiments, the working electrode rotated from 300 rpm to 2400 rpm at increments of 300 rpm. Three scans at each rotation rate were collected to ensure accuracy. LSV scans were conducted at a rate of 5 mV/s from 0.2 V to 0.8 V versus NHE.

[6] = 500 mV/s scan rate, 4.0 mM in 0.5 M NaCl

Compound: C[n+]1ccc(-c2nc3sc(-c4cc[n+](C)cc4)nc3s2)cc1.[Cl-].[Cl-] [(Me2TTz)Cl2, N,N′-dimethyl 2,5-bis(4-pyridinium)thiazolo[5,4-d]thiazole Dichloride]
- water solubility (Aqueous solubility; in water): < 10 mm

Compound: C[n+]1ccc(-c2cc[n+](C)cc2)cc1 [Methyl viologen]
- air sensitivity of reduced states ([1]; MV^+ and MV^0): highly air sensitive
- solubility of charge-neutral state in aqueous solution ([1]; aqueous solution): insolubility

- oxygen sensitivity of the two-electron reduced state [2]: no change in color
Compound: C[N+](C)(C)CCCN1C=CC(=c2nc3sc(=C4C=CN(CCC[N+](C)(C)C)C=C4)nc3s2)C=C1.[Cl-].[Cl-] [[(NPr)2TTz]Cl2, 3,3′-(thiazolo[5,4-d]thiazole-2,5-diylidenebis(pyridin-1(4H)-yl-4(4H)-ylidene))bis(N,N,N-trimethylpropan-1-aminium) Dichloride]

- E1/2 of 1st electron reduction ([(NPr)2TTz]^4+/3+) ([3]; 4.0 mM in 0.5 M NaCl): −0.38 V vs. NHE
- E1/2 of 2nd electron reduction ([(NPr)2TTz]^3+/2+) ([3]; 4.0 mM in 0.5 M NaCl): −0.50 V vs. NHE
- average redox potential of the two single-electron reductions ([3]; neutral NaCl solution): -0.44 V
- peak-to-peak separation ΔEp, 1st electron reduction [4, 6]: 53 mV
- peak-to-peak separation ΔEp, 2nd electron reduction [4, 6]: 58 mV
- average diffusion coefficient (D) for [(NPr)2TTz]^4+ and [(NPr)2TTz]^3+ [5]: 3.15×10^−6 cm^2 s^−1
- solubility (Aqueous solubility; 2.0 m NaCl aqueous solution, saline or isotonic, in 2.0 m NaCl, read-out: solubility in 2.0 m NaCl): 1100 mM
- charge capacity corresponding to solubility (Aqueous solubility; in 2.0 m NaCl): 60.0 Ah L^−1
- charge capacity corresponding to solubility (Aqueous solubility; in H2O): 69.7 Ah L^−1
- solubility (Aqueous solubility; water, in H2O, read-out: solubility in water): 1300 mM
Compound: C[N+](C)(C)CCC[n+]1ccc(-c2nc3sc(-c4cc[n+](CCC[N+](C)(C)C)cc4)nc3s2)cc1.[Cl-].[Cl-].[Cl-].[Cl-] [[(NPr)2TTz]Cl4, 4,4′-(thiazolo[5,4-d]thiazole-2,5-diyl)bis(1-(3-(trimethylammonio)propyl)pyridin-1-ium) tetrachloride]
- electron transfer rate constant k^0, both single-electron reductions ([4]; lower limit, Ψ=20, 500 mV/s): greater than 0.28 cm/s

- single-electron oxidation potential ([3]; neutral NaCl solution): +1.0 V (vs. NHE)
Compound: N, N, N, 2, 2, 6, 6-Heptamethylpiperidinyloxy-4-ammonium Chloride [N^Me-TEMPO, reference compound]
